Results taken from paper PMC7217481, “Amino acids serve as an important energy source for adult flukes of Clonorchis sinensis” (PLoS Neglected Tropical Diseases, 2020).

Target: T1, rCsFBPase (Clonorchis sinensis, UniProt G7YVB4)
T1 construct: gene CLF_111764; GenBank id is printed for the qPCR primers and is a genome scaffold
T1 sequence (G7YVB4 1-346): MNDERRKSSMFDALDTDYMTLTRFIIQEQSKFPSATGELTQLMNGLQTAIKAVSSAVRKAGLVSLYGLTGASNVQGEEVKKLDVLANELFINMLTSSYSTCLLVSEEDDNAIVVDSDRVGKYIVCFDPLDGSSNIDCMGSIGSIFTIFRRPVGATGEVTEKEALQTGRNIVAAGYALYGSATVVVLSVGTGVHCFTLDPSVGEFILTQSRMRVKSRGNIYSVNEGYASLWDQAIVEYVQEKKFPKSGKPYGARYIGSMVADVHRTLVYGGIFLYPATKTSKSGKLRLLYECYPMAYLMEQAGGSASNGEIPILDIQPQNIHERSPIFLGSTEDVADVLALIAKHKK
Test: coupled G6PDH / phosphoglucose isomerase assay, NADP+ reduction at […] nm
Type: biochemical

Row | Compound | IC50
1 | Nc1ncnc2c1ncn2[C@@H]1O[C@H](COP(=O)(O)O)[C@@H](O)[C@H]1O [AMP] | 262 µM
2 | CC(C)Cc1sc(N)nc1-c1ccc(P(=O)(O)O)o1 [MB05032, [5-[2-amino-5-(2-methylpropyl)-4-thiazolyl]-2-furanyl] phosphonic acid] | 4.9 µM
